Source: PubChem BioAssay (NCI)
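The compound was tested at five concentrations on cells cultured in 96-well plates, with a 48-hour exposure period. TGI marks complete inhibition of growth.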

Tests used:
Test in all cases: NCI-60 cell line screen, 48 h
786-0 renal = test system: 786-0 renal
A498 renal = test system: A498 renal
A549 NSCLC = test system: A549 NSCLC
ACHN renal = test system: ACHN renal
BT-549 breast = test system: BT-549 breast
CAKI-1 renal = test system: CAKI-1 renal
CCRF-CEM leukemia = test system: CCRF-CEM leukemia
COLO 205 colon = test system: COLO 205 colon
DU-145 prostate = test system: DU-145 prostate
EKVX NSCLC = test system: EKVX NSCLC
HCC-2998 colon = test system: HCC-2998 colon
HCT-116 colon = test system: HCT-116 colon
HCT-15 colon = test system: HCT-15 colon
HOP-62 NSCLC = test system: HOP-62 NSCLC
HOP-92 NSCLC = test system: HOP-92 NSCLC
HS 578T breast = test system: HS 578T breast
HT29 colon = test system: HT29 colon
IGROV1 ovarian = test system: IGROV1 ovarian
K-562 leukemia = test system: K-562 leukemia
KM12 colon = test system: KM12 colon
LOX IMVI melanoma = test system: LOX IMVI melanoma
M14 melanoma = test system: M14 melanoma
MALME-3M melanoma = test system: MALME-3M melanoma
MCF7 breast = test system: MCF7 breast
MDA-MB-231 breast = test system: MDA-MB-231 breast
MDA-MB-435 = test system: MDA-MB-435
MDA-N = test system: MDA-N
MOLT-4 leukemia = test system: MOLT-4 leukemia
NCI-H226 lung = test system: NCI-H226 lung
NCI-H23 lung = test system: NCI-H23 lung
NCI-H460 lung = test system: NCI-H460 lung
NCI-H522 lung = test system: NCI-H522 lung
NCI/ADR-RES ovarian = test system: NCI/ADR-RES ovarian
OVCAR-3 ovarian = test system: OVCAR-3 ovarian
OVCAR-4 ovarian = test system: OVCAR-4 ovarian
OVCAR-5 ovarian = test system: OVCAR-5 ovarian
OVCAR-8 ovarian = test system: OVCAR-8 ovarian
PC-3 prostate = test system: PC-3 prostate
RPMI-8226 leukemia = test system: RPMI-8226 leukemia
RXF 393 renal = test system: RXF 393 renal
SF-268 CNS = test system: SF-268 CNS
SF-295 CNS = test system: SF-295 CNS
SF-539 CNS = test system: SF-539 CNS
SK-MEL-2 melanoma = test system: SK-MEL-2 melanoma
SK-MEL-28 melanoma = test system: SK-MEL-28 melanoma
SK-MEL-5 melanoma = test system: SK-MEL-5 melanoma
SK-OV-3 ovarian = test system: SK-OV-3 ovarian
SN12C renal = test system: SN12C renal
SNB-19 CNS = test system: SNB-19 CNS
SNB-75 CNS = test system: SNB-75 CNS
SW-620 colon = test system: SW-620 colon
T-47D breast = test system: T-47D breast
TK-10 renal = test system: TK-10 renal
U251 CNS = test system: U251 CNS
UACC-257 melanoma = test system: UACC-257 melanoma
UO-31 renal = test system: UO-31 renal
HL-60(TB) leukemia = test system: HL-60(TB) leukemia
UACC-62 melanoma = test system: UACC-62 melanoma

## CCOC(=O)C1=CC(C)(C(=O)OCC)Nc2c(nc(SC)[nH]c2=O)N1 (stereo unspecified)
786-0 renal
  TGI: > 10 µM
A498 renal
  TGI: > 10 µM
A549 NSCLC
  TGI: > 10 µM
ACHN renal
  TGI: > 10 µM
BT-549 breast
  TGI: > 10 µM
CAKI-1 renal
  TGI: > 10 µM
CCRF-CEM leukemia
  TGI: > 10 µM
COLO 205 colon
  TGI: > 10 µM
DU-145 prostate
  TGI: > 10 µM
EKVX NSCLC
  TGI: > 10 µM
HCC-2998 colon
  TGI: > 10 µM
HCT-116 colon
  TGI: > 10 µM
HCT-15 colon
  TGI: > 10 µM
HOP-62 NSCLC
  TGI: > 10 µM
HOP-92 NSCLC
  TGI: > 10 µM
HS 578T breast
  TGI: > 10 µM
HT29 colon
  TGI: > 10 µM
IGROV1 ovarian
  TGI: > 10 µM
K-562 leukemia
  TGI: > 10 µM
KM12 colon
  TGI: > 10 µM
LOX IMVI melanoma
  TGI: > 10 µM
M14 melanoma
  TGI: > 10 µM
MALME-3M melanoma
  TGI: > 10 µM
MCF7 breast
  TGI: > 10 µM
MDA-MB-231 breast
  TGI: > 10 µM
MDA-MB-435
  TGI: > 10 µM
MDA-N
  TGI: > 10 µM
MOLT-4 leukemia
  TGI: > 10 µM
NCI-H226 lung
  TGI: > 10 µM
NCI-H23 lung
  TGI: > 10 µM
NCI-H460 lung
  TGI: > 10 µM
NCI-H522 lung
  TGI: > 10 µM
NCI/ADR-RES ovarian
  TGI: > 10 µM
OVCAR-3 ovarian
  TGI: > 10 µM
OVCAR-4 ovarian
  TGI: > 10 µM
OVCAR-5 ovarian
  TGI: > 10 µM
OVCAR-8 ovarian
  TGI: > 10 µM
PC-3 prostate
  TGI: > 10 µM
RPMI-8226 leukemia
  TGI: > 10 µM
RXF 393 renal
  TGI: > 10 µM
SF-268 CNS
  TGI: > 10 µM
SF-295 CNS
  TGI: > 10 µM
SF-539 CNS
  TGI: > 10 µM
SK-MEL-2 melanoma
  TGI: > 10 µM
SK-MEL-28 melanoma
  TGI: > 10 µM
SK-MEL-5 melanoma
  TGI: > 10 µM
SK-OV-3 ovarian
  TGI: > 10 µM
SN12C renal
  TGI: > 10 µM
SNB-19 CNS
  TGI: > 10 µM
SNB-75 CNS
  TGI: > 10 µM
SW-620 colon
  TGI: > 10 µM
T-47D breast
  TGI: > 10 µM
TK-10 renal
  TGI: > 10 µM
U251 CNS
  TGI: > 10 µM
UACC-257 melanoma
  TGI: > 10 µM
UO-31 renal
  TGI: > 10 µM

## C/C=C1/C[C@@H](C)[C@@](C)(O)C(=O)OCC2=CC[N+]3([O-])CC[C@@H](OC1=O)[C@@H]23 (stereo partly specified)
786-0 renal
  TGI: > 100 µM
A498 renal
  TGI: > 100 µM
A549 NSCLC
  TGI: > 100 µM
ACHN renal
  TGI: > 100 µM
BT-549 breast
  TGI: > 100 µM
CAKI-1 renal
  TGI: > 100 µM
CCRF-CEM leukemia
  TGI: > 100 µM
COLO 205 colon
  TGI: > 100 µM
DU-145 prostate
  TGI: > 100 µM
EKVX NSCLC
  TGI: > 100 µM
HCC-2998 colon
  TGI: > 100 µM
HCT-116 colon
  TGI: > 100 µM
HCT-15 colon
  TGI: > 100 µM
HL-60(TB) leukemia
  TGI: > 100 µM
HOP-92 NSCLC
  TGI: > 100 µM
HS 578T breast
  TGI: > 100 µM
HT29 colon
  TGI: > 100 µM
IGROV1 ovarian
  TGI: > 100 µM
K-562 leukemia
  TGI: > 100 µM
KM12 colon
  TGI: > 100 µM
LOX IMVI melanoma
  TGI: > 100 µM
M14 melanoma
  TGI: > 100 µM
MALME-3M melanoma
  TGI: > 100 µM
MCF7 breast
  TGI: > 100 µM
MDA-MB-231 breast
  TGI: > 100 µM
MDA-MB-435
  TGI: > 100 µM
MDA-N
  TGI: > 100 µM
MOLT-4 leukemia
  TGI: > 100 µM
NCI-H226 lung
  TGI: > 100 µM
NCI-H23 lung
  TGI: > 100 µM
NCI-H460 lung
  TGI: > 100 µM
NCI-H522 lung
  TGI: > 100 µM
NCI/ADR-RES ovarian
  TGI: > 100 µM
OVCAR-3 ovarian
  TGI: > 100 µM
OVCAR-4 ovarian
  TGI: > 100 µM
OVCAR-5 ovarian
  TGI: > 100 µM
OVCAR-8 ovarian
  TGI: > 100 µM
PC-3 prostate
  TGI: > 100 µM
SF-268 CNS
  TGI: > 100 µM
SF-295 CNS
  TGI: > 100 µM
SF-539 CNS
  TGI: > 100 µM
SK-MEL-2 melanoma
  TGI: > 100 µM
SK-MEL-28 melanoma
  TGI: > 100 µM
SK-MEL-5 melanoma
  TGI: > 100 µM
SK-OV-3 ovarian
  TGI: > 100 µM
SN12C renal
  TGI: > 100 µM
SNB-19 CNS
  TGI: > 100 µM
SNB-75 CNS
  TGI: > 100 µM
SW-620 colon
  TGI: > 100 µM
T-47D breast
  TGI: > 100 µM
TK-10 renal
  TGI: > 100 µM
U251 CNS
  TGI: > 100 µM
UACC-257 melanoma
  TGI: > 100 µM
UACC-62 melanoma
  TGI: > 100 µM
UO-31 renal
  TGI: > 100 µM
